# Measurements: patent US7601751B2, “Indole acetic acid acyl guanidines as β-secretase inhibitors” (Bristol-Myers Squibb Company, priority 2005, dated 2009)
# Molecular target: T1, BACE1 enzyme (Homo sapiens, UniProt P56817)
# T1 construct: The HEK293-9B.A1 cell line, which overexpresses the BACE1 enzyme, was derived from HEK293 cells; endogenous in cells; washed membrane pellet / cell homogenate
# Experiment: Radioligand displacement assay with a radiolabeled BACE inhibitor on HEK293-9B.A1 cell homogenate
# Assay type: binding
# Details: HEK293-9B.A1 cell homogenate overexpressing BACE1, 1 nM radioligand, pH 5.0, 1.5 hr at 25° C., read-out: Activity Rating (activity based on IC50 values)
# Description: Radioligand displacement assays with a radiolabeled BACE inhibitor (WO 2004 013098, compound 3, where the methoxy group is substituted for C(^3H)3) were carried out using standard methods (Keen, M. (1999) in Receptor Binding Techniques (Walker, J. M. ed) p. 106 Humana Press, Totowa, N.J.). The HEK293-9B.A1 cell line, which overexpresses the BACE1 enzyme, was derived from HEK293 cells (Simmons, N. L. (1990) A cultured human renal epithelioid cell line responsive to vasoactive intestinal peptide. Exp. Physiol. 75:309-19.) by RAGE™ (Harrington, J. J. et al. (2001) Creation of genome-wide protein expression libraries using random activation of gene expression. Nat. Biotechnol. 19:440-5; U.S. Pat. No. 6,410,266 and 6,361,972). T225 flask cultures of HEK293-9B.A1 were grown to 80% confluency in DMEM supplemented with 2 mM L-glutamine, 10 μg/ml penecillin, 10 μg/ml streptomycin, 3 μg/ml puromycin, 100 nM methotrexate, and 10% fetal bovine serun (Invitrogen, Carlsbad, Calif.), harvested, and resuspended at 2×10^8 cells per 10 ml of lysis buffer consisting of 50 mM HEPES pH 7.0 containing a protease inhibitor cocktail of AEBSF 104 μM, aprotinin 80 nM, leupeptin 2 μM, bestatin 4 μM, pepstatin A 1.5 μM, and E-64 1.4 μM (0.1% of protease inhibitor cocktail P8340, Sigma-Aldrich, St. Louis, Mo.) at 4° C. The resuspended cells were homogenized using a Polytron (Brinkman, Westbury, N.Y.) at setting 6 for 10 sec., then centrifuged at 48,000×g for 10 min. The resulting pellet was washed by repeating the resuspension, homogenization and centrifugation steps. The final pellet was resuspended in buffer at 4° C. to yield a total protein concentration of 5 mg/ml, then aliquots were frozen in liquid nitrogen for further storage at −70° C. Immediately before carrying out a binding assay, an aliquot of cell homogenate was thawed and diluted to a concentration of 100 μg/ml in assay buffer consisting of 50 mM HEPES pH 5.0 and 0.1% CHAPSO. Assays were initiated in polypropylene 96-well plates (Costar, Cambridge, Mass.) by the addition of 200 μl of cell homogenate to 50 μl of assay buffer containing 1 nM radioligand (WO 2004 013098, compound 3, where the methoxy group is substituted for C(^3H)3: 80 Ci/mMol) and various concentrations of unlabelled compounds, and incubated for 1.5 hr. at 25° C. Separation of bound from free radioligand was by filtration on GFF glass fiber filters (Innotech Biosystems International, Lansing, Mich.) using an Innotech cell harvester. Filters were washed three times with 0.3 ml of phosphate buffered saline pH 7.0 at 4° C. and assessed for radioactivity using a Wallac 1450 Microbeta liquid scintillation counter (PerkinElmer, Boston, Mass.). Ki values of competing compounds were derived through Cheng-Prussoff correction of IC50 values calculated using XLfit (IDBS, Guildford, UK).
# T1 sequence (P56817 46-501): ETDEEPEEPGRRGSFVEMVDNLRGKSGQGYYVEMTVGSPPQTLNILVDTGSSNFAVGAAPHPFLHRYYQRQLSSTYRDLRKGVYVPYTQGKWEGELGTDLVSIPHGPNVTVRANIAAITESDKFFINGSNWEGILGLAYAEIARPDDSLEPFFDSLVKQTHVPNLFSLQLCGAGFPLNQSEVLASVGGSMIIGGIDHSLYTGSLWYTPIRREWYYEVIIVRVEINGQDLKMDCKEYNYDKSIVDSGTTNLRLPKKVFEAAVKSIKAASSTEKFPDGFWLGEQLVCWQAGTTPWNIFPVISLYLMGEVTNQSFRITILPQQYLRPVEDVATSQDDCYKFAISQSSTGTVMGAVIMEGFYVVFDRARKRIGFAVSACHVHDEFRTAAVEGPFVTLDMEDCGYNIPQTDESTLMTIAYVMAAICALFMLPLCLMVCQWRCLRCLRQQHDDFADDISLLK
row,SMILES,IC50
1,CC(=O)Nc1c(Cl)cc(CN/C(N)=N/C(=O)Cc2c(C)[nH]c3ccc(F)cc23)cc1Cl [Example 21],100 to 1000 nM
2,"CC(=O)Nc1c(Cl)cc(CN/C(N)=N/C(=O)Cc2c(C)[nH]c3ccccc23)cc1Cl [Example 11, N-(2,6-Dichloro-4-{N′-[2-(2-methyl-1H-indol-3-yl)-acetyl]-guanidinomethyl}-phenyl)-acetamide]",100 to 1000 nM
3,"CC(=O)Nc1c(Cl)cc(CN/C(N)=N/C(=O)Cc2c(C#N)[nH]c3ccc(Br)cc23)cc1Cl [Example 25, N-(4-{N′-[2-(5-Bromo-2-cyano-1H-indol-3-yl)-acetyl]-guanidinomethyl}-2,6-dichloro-phenyl)-acetamide]",< 100 nM
4,"CC(=O)Nc1c(Cl)cc(CN/C(N)=N/C(=O)Cc2c[nH]c3cc(F)ccc23)cc1Cl [Example 16, N-(2,6-Dichloro-4-{N′-[2-(6-fluoro-1H-indol-3-yl)-acetyl]-guanidinomethyl}-phenyl)-acetamide]",100 to 1000 nM
5,"COc1ccc2[nH]cc(CC(=O)/N=C(\N)NCc3cc(Cl)c(NC(C)=O)c(Cl)c3)c2c1 [Example 2, N-(2,6-Dichloro-4-{N′-[2-(5-methoxy-1H-indol-3-yl)-acetyl]-guanidinomethyl}-phenyl)-acetamide]",100 to 1000 nM
6,"N/C(=N\C(=O)Cc1c[nH]c2ccc(F)cc12)NCc1cc(Cl)cc(Cl)c1 [Example 4, N-(3,5-Dichloro-benzyl)-N′-[2-(5-fluoro-1H-indol-3-yl)-acetyl]-guanidine]",> 1000 nM
7,"N/C(=N\C(=O)Cc1c[nH]c2ccc(Br)cc12)NCc1cc(Cl)c(N)c(Cl)c1 [Example 17, N-(4-Amino-3,5-dichloro-benzyl)-N′-[2-(5-bromo-1H-indol-3-yl)-acetyl]-guanidine]",> 1000 nM
8,"COc1ccc2[nH]cc(CC(=O)/N=C(\N)NCc3cc(Cl)cc(Cl)c3)c2c1 [Example 3, N-(3,5-Dichloro-benzyl)-N′-[2-(5-methoxy-1H-indol-3-yl)-acetyl]-guanidine]",> 1000 nM
9,"CC(=O)Nc1c(Cl)cc(CN/C(N)=N/C(=O)Cc2c(C)[nH]c3c(F)cccc23)cc1Cl [Example 22, N-(2,6-Dichloro-4-{N′-[2-(7-fluoro-2-methyl-1H-indol-3-yl)-acetyl]-guanidinomethyl}-phenyl)-acetamide]",100 to 1000 nM
10,"Cn1cc(CC(=O)/N=C(\N)NCc2cc(Cl)c(N)c(Cl)c2)c2ccccc21 [Example 5, N-((4-amino-3,5-dichlorobenzylamino)(amino)methylene)-2-(1-methyl-1H-indol-3-yl)acetamide]",> 1000 nM
11,"N/C(=N\C(=O)Cc1cn(Cc2ccc(F)cc2)c2ccccc12)NCc1cc(Cl)c(N)c(Cl)c1 [Example 6, N-((4-amino-3,5-dichlorobenzylamino)(amino)methylene)-2-(1-(4-fluorobenzyl)-1H-indol-3-yl)acetamide]",> 1000 nM
12,"CC(=O)Nc1c(Cl)cc(CN/C(N)=N/C(=O)Cc2c[nH]c3ccc(O)cc23)cc1Cl [Example 14, N-(2,6-Dichloro-4-{N′-[2-(5-hydroxy-1H-indol-3-yl)-acetyl]-guanidinomethyl}-phenyl)-acetamide]",100 to 1000 nM
13,"CC(=O)Nc1c(Cl)cc(CN/C(N)=N/C(=O)Cc2c[nH]c3cc(OCc4ccccc4)ccc23)cc1Cl [Example 15, N-(4-{N′-[2-(6-Benzyloxy-1H-indol-3-yl)-acetyl]-guanidinomethyl}-2,6-dichloro-phenyl)-acetamide]",100 to 1000 nM
14,"CN1CCN(c2ccc(CN/C(N)=N/C(=O)Cc3c[nH]c4ccc(Br)cc34)cc2Cl)CC1 [Example 19, N-[2-(5-Bromo-1H-indol-3-yl)-acetyl]-N′-[3-chloro-4-(4-methyl-piperazin-1-yl)-benzyl]-guanidine]",> 1000 nM
15,"CC(=O)Nc1c(Cl)cc(CN/C(N)=N/C(=O)Cc2c[nH]c3ccc(C#N)cc23)cc1Cl [Example 23, N-(4-{N′-[2-(5-Cyano-1H-indol-3-yl)-acetyl]-guanidinomethyl}-2,6-dichloro-phenyl)-acetamide]",< 100 nM
16,"CC(=O)Nc1c(Cl)cc(CN/C(N)=N/C(=O)Cc2c[nH]c3cc(Br)ccc23)cc1Cl [Example 1, N-(4-{N′-[2-(6-Bromo-1H-indol-3-yl)-acetyl]-guanidinomethyl}-2,6-dichloro-phenyl)-acetamide]",100 to 1000 nM
17,"COc1ccc2[nH]cc(CC(=O)/N=C(\N)NCc3cc(C)c(NC(C)=O)c(Cl)c3)c2c1 [Example 9, N-(2-Chloro-4-{N′-[2-(5-methoxy-1H-indol-3-yl)-acetyl]-guanidinomethyl}-6-methyl-phenyl)-acetamide]",100 to 1000 nM
18,"CC(=O)Nc1c(Cl)cc(CN/C(N)=N/C(=O)Cc2c(C(=O)NC(C)(C)C)[nH]c3ccc(Br)cc23)cc1Cl [Example 24, 3-{2-[N′-(4-Acetylamino-3,5-dichloro-benzyl)-guanidino]-2-oxo-ethyl}-5-bromo-1H-indole-2-carboxylic acid tert-butylamide]",< 100 nM
19,"CC(=O)Nc1c(Cl)cc(CN/C(N)=N/C(=O)Cc2c[nH]c3ccc(Br)cc23)cc1Cl [Example 20, N-(4-{N′-[2-(5-Bromo-1H-indol-3-yl)-acetyl]-guanidinomethyl}-2,6-dichloro-phenyl)-acetamide]",< 100 nM
20,"CC(C(=O)/N=C(\N)NCc1cc(Cl)c(N)c(Cl)c1)c1c[nH]c2ccccc12 (stereo not shown) [Example 8, N-((4-amino-3,5-dichlorobenzylamino)(amino)methylene)-2-(1H-indol-3-yl)propanamide]",> 1000 nM
21,"COc1ccc2[nH]c(C)c(CC(=O)/N=C(\N)NCc3cc(Cl)c(NC(C)=O)c(Cl)c3)c2c1 [Example 10, N-(2,6-Dichloro-4-{N′-[2-(5-methoxy-2-methyl-1H-indol-3-yl)-acetyl]-guanidinomethyl}-phenyl)-acetamide]",100 to 1000 nM
22,"CN1CCN(c2ccc(CN/C(N)=N/C(=O)Cc3c[nH]c4ccc(Br)cc34)cc2)CC1 [Example 18, N-[2-(5-Bromo-1H-indol-3-yl)-acetyl]-N′-[4-(4-methyl-piperazin-1-yl)-benzyl]-guanidine]",> 1000 nM
23,"CC(=O)Nc1c(Cl)cc(CN/C(N)=N/C(=O)Cc2c[nH]c3ccc(F)cc23)cc1Cl [Example 12, N-(2,6-Dichloro-4-{N′-[2-(5-fluoro-1H-indol-3-yl)-acetyl]-guanidinomethyl}-phenyl)-acetamide]",100 to 1000 nM
24,"COc1ccc2[nH]cc(CC(=O)/N=C(\N)NCc3cc(Cl)c(N)c(Cl)c3)c2c1 [Example 7, N-((4-amino-3,5-dichlorobenzylamino)(amino)methylene)-2-(5-methoxy-1H-indol-3-yl)acetamide]",> 1000 nM
25,"CC(=O)Nc1c(Cl)cc(CN/C(N)=N/C(=O)Cc2c[nH]c3ccc(OCc4ccccc4)cc23)cc1Cl [Example 13, N-(4-{N′-[2-(5-Benzyloxy-1H-indol-3-yl)-acetyl]-guanidinomethyl}-2,6-dichloro-phenyl)-acetamide]",> 1000 nM
